Data set [1] is described as follows: Heme-binding assay by mass spectrometry with collision-induced dissociation of adducts (DV50). The settings on record: energy dissociating 50% of the heme-Fe(III) adduct, NA = no adduct. The method, then: Hemin (iron-containing porphyrin with chlorine counterion) and the crude ethanolic extract were dissolved in DMSO at 5 mM and 10 mg/mL, respectively. Pure compounds were dissolved in DMSO at the concentration of 10 mM, except for Tween 20, which was dissolved in water at 10 µM. Citric-buffer-saturated octanol (CBSO) was prepared by mixing 5 mL of citric acid, 50 mM and pH 5.2, and 15 mL of N-octanol (anhydrous, ≥99%) and letting it settle at 23 °C for 30 min. The upper phase of the CBSO biphasic system was used. Autosampler 1260 infinity G1367E 1260 Hip ALS (Agilent Technologies, Santa Clara, CA, USA) was used to perform the automatic mixing of aliquots in 384-well plates. The incubation mixture was as follows: Compound 5 µL + heme 5 µL + Tween 5 µL + organic phase of CBSO 85 µL. Samples were injected in infusion mode (direct injection) in a 6530 Accurate-Mass QToF LC–MS instrument (Agilent Technologies) with the following settings: Positive ESI mode and 2 GHz acquisition rate. […] In positive-ion mode, purine ion C5H4N4 [M + H]^+ (m/z 121.050873) and the hexakis (1H,1H,3H-tetrafluoropropoxy)-phosphazene ion C18H18F24N3O6P3 [M+H]^+ (m/z 922.009798) were used as internal lock masses. Full scans were acquired at a resolution of ca 11 000 (at m/z 922).
To obtain heme-Fe(II) from hemin (heme-Fe(III)), glutathione (50 mM in water) was mixed with hemin (5 mM in DMSO) in a ratio of 1:1 and left to incubate for 40 min. This solution was used as the heme solution, as described above.
Dissociation in the collision chamber was caused by increasing collision energies from 0 to 56 eV. The MS–MS targeted mode, an isolation width of m/z 1.3, and the flow injection analysis mode (FIA) were applied. MS–MS parameters were the same as described above. The results were plotted, and a sigmoidal regression curve allowed us to calculate the energy necessary to dissociate 50% of adducts (DV50) using GraphPrism software version 5.00 (San Diego, CA, USA) or a Python script.
Ethanolic extract and hemin (heme-Fe(III)) were mixed and injected using infusion mode for the MS–MS experiment. Three collision energies were used: 30, 50, and 70 eV. The ten most intense ions (top 10) per cycle were selected. MS–MS acquisition parameters were as follows: m/z range of 100–1700, default charge of 1, a minimum intensity of 5000 counts, 3 spectra/s, and isolation width of 1.3 m/z. A list of compounds was generated by the “find by auto MSMS” algorithm of MassHunter software (Qualitative Analysis B.07.00, Agilent Technologies). The “extract average MS–MS spectrum” mode was used to summarize and average the results of the 3 collision energies. Exportation of generated spectra was performed in MGF format using the option “entire data file”. The information generated was uploaded onto the online platform GNPS (global natural product social network). Parameters used for the algorithm were as follows: Precursor ion mass tolerance = 1; fragment ion mass tolerance = 0.3; min pairs cos = 0.7; minimum matched fragment ions = 3; and minimum cluster size = 1. From the data, a network was calculated measuring correlations and was plotted using Cytoscape 3.5.1. […] An alkaloid extract from Cinchona pubescens Vahl (Rubiaceae) and eight antiplasmodial drugs (chloroquine, quinine, amodiaquine, ketoconazole, miconazole, mefloquine, praziquantel, and sulfadoxine) were used as examples of the visualization of adduct fragments by MN. The methodology and conditions were the same as described above.

In data set [2] the test system is 3D7 Plasmodium falciparum strain. The data set is described as follows: In vitro antiplasmodial activity on Plasmodium falciparum (SYBR Green I). Particulars: for IC50: chloroquine-sensitive 3D7 strain, 44 h incubation. In kind it is cell-based. The method, then:
The strain was maintained in O+ human erythrocytes in an albumin-supplemented RPMI medium under continuous culture using the candle-jar method. […] After 44 h of incubation at 37 °C, the plates were subjected to 3 freeze-thaw cycles to achieve complete hemolysis. The parasite lysis suspension was diluted 1:5 in lysis buffer. In vitro susceptibility is expressed as the concentration inhibiting 50% of the parasite's growth (IC50). Parasite growth was determined using SYBR® Green I, a dye with strong fluorescence enhancement upon contact with DNA. Incorporation of the SYBR® Green I (Fisher Scientific, Illkirch-Graffenstaden, France) in parasite DNA was measured using the Master […]® (Eppendorf, Montesson, France) according to the following program to increase the SYBR® Green I incorporation: 90 °C (1 min) and a decrease to 10 °C over 5 min followed by fluorescence reading. Untreated infected and uninfected erythrocytes were used as controls and chloroquine diphosphate (Sigma, Lezennes, France) was used as a reference drug. IC50 was calculated by IC-estimator online software (www.antimalarial-icestimator.net, accessed on 18 January 2018).

A short description of data set [3]: Cytotoxicity, Alamar Blue. The format is cell-based, human. The settings on record: human, 72 h treatment. As for the experimental part:
(§1) Cells were seeded in 96-well plates (20,000 cells/mL) and incubated for 24 h, then treated with the drug for 72 h. […] Fluorescent viable cells were monitored after 5 h of incubation at 37 °C at a wavelength of 530 nm for excitation and 590 nm for emission in an FL600 luminescence spectrometer (Biotek, Colmar, France).

In data set [4] the test system is AB943 primary human dermal fibroblast cell line. The data set can be described thus: Cytotoxicity, Alamar Blue. In kind it is cell-based. Particulars: for Selectivity Index CC50/IC50: CC50 on AB943 fibroblasts / IC50 on 3D7. The method, then:
as §1
A general note: Alamar Blue is a resazurin reagent that responds to reducing activity.

The next data set concerns Trypanosoma brucei. On the set-up: method as in PMID 28000515. Particulars: read-out: IC50 against Trypanosoma brucei; cited from earlier work.
Data set [5] concerns 3D7 Plasmodium falciparum strain. Particulars: artemisinin reference value; read-out: 3D7 Sensitive Strain IC50; cited from earlier work.
Setting [6] is: AB943 primary human dermal fibroblast cells.

Where two headings read alike, the source gives them in different places.

For orientation: IC50 means the point on the concentration scale where inhibition reaches its midpoint. The CC50 is the concentration giving 50% cytotoxicity. For the compound `COc1ccc(CCNC(=O)c2ccccc2)cc1` [Compound 11, N-Benzoyltyrarnine methyl ether], in data set [1], the DV50 was found to be 9.45 eV. Besides, the “antiplasmodial activity (in words)” value in data set [2] (3D7 strain) is listed as “no antiplasmodial activity”. Further, the IC50 in data set [2] (Plasmodium falciparum) is > 100 µM. The CC50 at 72 h in data set [3] (setting [6]) is > 100 µM. Further, the “Selectivity Index CC50/IC50” value in data set [4] was determined as 1.

`COc1cc(OC)c2c(c1C)OC(c1ccccc1)CC2=O` (stereo not drawn) [Compound 9, dimethyl cryptostrobin] showed a DV50 in data set [1] of 7.68 eV. Moreover, the IC50 in data set [2] (Plasmodium falciparum) is 85 µM. Moreover, in data set [3] (setting [6]), the CC50 at 72 h was > 100 µM. Further, in data set [4], the “Selectivity Index CC50/IC50” value was 1.2.

`COc1cc(O)cc(O)c1C(=O)/C=C/c1ccccc1` [Compound 3, cardamomin] returned a DV50 in data set [1] of 5.60 eV. The IC50 was 5.5 µM in data set [2] (Plasmodium falciparum) and 1.8 µM in the data set on Trypanosoma brucei. Further, the CC50 at 72 h in data set [3] (read-out: AB943 Primary Human Fibroblast CC50) was found to be 58 µM. Moreover, the “Selectivity Index CC50/IC50” value in data set [4] worked out at 10.5.

With `COc1cc(OC)c(C(=O)/C=C/c2ccccc2)c(O)c1C` [Compound 1, aurentiacin], the DV50 in data set [1] is 5.15 eV. The compound further had an IC50 in data set [2] (Plasmodium falciparum) of 2.25 µM. In addition, in data set [3] (setting [6]), the CC50 at 72 h came to 68.5 µM. Moreover, the “Selectivity Index CC50/IC50” value in data set [4] was determined as 30.4.

Take `CCN(CC)CCCC(C)Nc1ccnc2cc(Cl)ccc12` (stereo not drawn) [CQ, Chloroquine, reference compound]: the DV50 is 14.27 eV in data set [1] and “above 14 eV” in data set [1] (listed as chloroquine).

For alpinetin [Compound 7], in data set [1], the DV50 stood at 8.40 eV. In addition, the IC50 in data set [2] came out at 72 µM. In addition, the CC50 in data set [4] is > 100 µM.

In data set [2] (Plasmodium falciparum), `Cc1c(O)c(C)c2c(c1O)C(=O)CC(c1ccccc1)O2` (stereo not drawn) [Compound 6, desmethoxymatteucinol] returned an IC50 of 71 µM. Besides, the CC50 at 72 h in data set [3] (setting [6]) is > 100 µM. In addition, the “Selectivity Index CC50/IC50” value in data set [4] is recorded as 1.4.

Take pinocembrin [Compound 8]: the DV50 in data set [1] is 8.68 eV. In data set [2], half-maximal inhibition (IC50) was put at 78 µM. Moreover, the CC50 in data set [4] (72 h treatment, read-out: AB943 Primary Human Fibroblast CC50) was > 100 µM.

With `O=C1C=Cc2ccccc21` [Compound 12, 1H-inden-1-one], in data set [2] (Plasmodium falciparum), the IC50 is > 100 µM. Moreover, in data set [3] (setting [6]), the CC50 at 72 h was > 100 µM. For the same compound, in data set [4], the “Selectivity Index CC50/IC50” value came out at 1.

Regarding `COc1cc2c(c(O)c1C)C(=O)CC(c1ccccc1)O2` (stereo not drawn) [Compound 4, strobopinin 7-methyl ether], the IC50 in data set [2] (Plasmodium falciparum) was 60 µM. Besides, in data set [3] (setting [6]), the CC50 at 72 h was > 100 µM.

Take `C[C@@H]1CC[C@H]2[C@@H](C)C(=O)O[C@@H]3O[C@@]4(C)CC[C@@H]1[C@]32OO4` [ART, Artemisinin]: the IC50 in data set [5] was 0.004 µM.

In the case of `COC(=O)C1=CC(O)C(O)(C(=O)/C=C/c2ccccc2)C1` (stereo not drawn) [Compound 10], in data set [2] (Plasmodium falciparum), the IC50 is > 100 µM. Further, the 50% cytotoxic concentration (CC50) at 72 h in data set [3] (setting [6]) is > 100 µM. Moreover, in data set [4], the “Selectivity Index CC50/IC50” value is on record as 1.

As for `COc1cc(O)c(C)c(O)c1C(=O)/C=C/c1ccccc1` [Compound 2, 2′, 4′-dihydroxy-6′-methoxy-3′-methylchalcone], the DV50 in data set [1] came out at 5.93 eV. Besides, in data set [2] (Plasmodium falciparum), 51 µM corresponded to half-maximal inhibition (IC50). Also, the CC50 at 72 h in data set [3] (setting [6]) is > 100 µM. For the same compound, the “Selectivity Index CC50/IC50” value in data set [4] is recorded as 1.9.

In data set [2] (Plasmodium falciparum), `COc1c(C)c(O)c2c(c1C)OC(c1ccccc1)CC2=O` (stereo not drawn) [Compound 5, 5-hydroxy-7-methoxy-6,8-dimethyl flavanone] had an IC50 of 33.2 µM. In data set [3] (setting [6]), this compound registered a CC50 at 72 h of 23 µM. Also, the “Selectivity Index CC50/IC50” value in data set [4] is reported as <1.

Source of the values: paper PMC9656727, “Biodereplication of Antiplasmodial Extracts: Application of the Amazonian Medicinal Plant Piper coruscans Kunth” (Molecules, 2022).
